The values that follow come from article PMC8906008 (Antiviral Research, 2022).

Some results are limits rather than exact numbers.

One experiment has as its target SARS-CoV-2 nsp5 (nsp4-5-6 WT) (Severe acute respiratory syndrome coronavirus 2, UniProt P0DTD1). The experiment can be described thus: cell-based.
Turning to `C1=C/COCc2cc(ccc2OCCN2CCCC2)Nc2nccc(n2)-c2cccc(c2)COC/1` [Compound #9, Pacritinib (SB1518)], the “dose-response curve in Rev-Nluc assay” value is “irregular pattern”.

A further experiment has as its system SARS-CoV-2 nsp4-5-6 C145A.
Assay: not given
Format: cell-based.
With `C1=C/COCc2cc(ccc2OCCN2CCCC2)Nc2nccc(n2)-c2cccc(c2)COC/1` [Compound #9, Pacritinib (SB1518)], the “Secondary screen nsp5-CA RLU (%)” value is 98.3 ± 4.0%.

Turning to `CCOC(=O)C1=C(C)NC(C)=C(C(=O)OCC)C1c1ccccc1/C=C/C(=O)OC(C)(C)C` [compound 3, Lacidipine], the “Secondary screen nsp5-CA RLU (%)” value is 121.2 ± 7.4%. Same read-out and setting: next, `CC[C@@H]1C(=O)N(C)c2cnc(Nc3ccc(C(=O)N[C@H]4CC[C@H](N5CCN(CC6CC6)CC5)CC4)cc3OC)nc2N1C(C)C` [compound 4, Volasertib (BI6727)]: over 250%; `COc1cc(NC(=O)Nc2cccc(CNC(=O)O[C@H]3CCOC3)c2)ccc1-c1cnco1` [compound 5, Merimepodib]: 110.4 ± 10.8%; `Cc1cnc(Nc2ccc(OCCN3CCCC3)cc2)nc1Nc1cccc(S(=O)(=O)NC(C)(C)C)c1` [compound 6, Fedratinib (SAR302503)]: over 250%. Same read-out and setting: next, `Cc1sc2c(c1C)C(c1ccc(Cl)cc1)=N[C@@H](CC(=O)Nc1ccc(O)cc1)c1nnc(C)n1-2` [compound 7, OTX015]: over 250%; `Cc1cnc(Nc2ccc(N3CCN(C)CC3)cc2)nc1Nc1cccc(S(=O)(=O)NC(C)(C)C)c1` [compound 8, TG101209]: over 250%. Same read-out and setting: as for `O=C(Nc1c[nH]nc1-c1nc2ccc(CN3CCOCC3)cc2[nH]1)NC1CC1` [compound 10, AT9283], the figure is 71.3 ± 8.3%; as for `COCCOc1ccc2c(c1)ncn2-c1ccc2cccc(N3CCC(N)CC3)c2n1` [compound 12, CP 673451], 144.6 ± 10.3%. `CNCc1ccc(C)c(NC(=O)c2ccc(Nc3nc(-c4ccccc4)c4ccccc4n3)cc2)c1` [compound 16, BMS-833923 (XL139)]: the “Secondary screen nsp5-CA RLU (%)” value is on record as 256.0 ± 74.0%. On to `CC(C)(C)c1cnc(CSc2cnc(NC(=O)C3CCNCC3)s2)o1` [compound 17, SNS-032 (BMS-387032)], for which the “Secondary screen nsp5-CA RLU (%)” value came out at 66.6 ± 3.4%. Turning to `C=CC(=O)Nc1cccc(Nc2nc(Nc3ccc(N4CCN(C(C)=O)CC4)cc3OC)ncc2C(F)(F)F)c1` [compound 20, Rociletinib (CO-1686. AVL-301)], the “Secondary screen nsp5-CA RLU (%)” value stood at 181.9 ± 10.4%. As to `Cc1nc(Nc2ncc(C(=O)Nc3c(C)cccc3Cl)s2)cc(N2CCN(CCO)CC2)n1` [compound 21, Dasatinib (BMS-354825)], the “Secondary screen nsp5-CA RLU (%)” value came to 249.1 ± 19.9%. Still for that read-out and setting: next, `C=CC(=O)Nc1cc(Nc2nccc(-c3cn(C)c4ccccc34)n2)c(OC)cc1N(C)CCN(C)C` [compound 23, Osimertinib (AZD9291)]: 43.2 ± 6.7%; `O=C(NC(Cc1cc(=O)[nH]c2ccccc12)C(=O)O)c1ccc(Cl)cc1` (stereo not drawn) [compound 43, Rebamipide]: 71.6 ± 6.5%. On the same count and under the same terms, next, `CC(C)(C(=O)c1cccnc1)c1cccnc1` [compound 44, Metyrapone]: 77.7 ± 2.4%; UNC2881 [compound 1]: 295.3 ± 15.8%.
